# How the values were obtained:
# Experiment in all cases: radiometric filter-binding kinase assay, Kinase HotSpot
# Details in all cases: compound 0.5 µM; ATP 10 µM
# [1] = molecular target: TEK (human) (UniProt Q02763)
# [2] = molecular target: ULK1 (human) (UniProt O75385)
# [3] = molecular target: CDK7 CCNH MNAT1 (human) (UniProt P50613+P51948+P51946)
# [4] = molecular target: GRK4 (human) (UniProt P32298)
# [5] = molecular target: CSNK1E (human) (UniProt P49674)
# [6] = molecular target: MAP3K11 (human) (UniProt Q16584)
# Sequence of MAP3K11 (human) (Q16584 whole entry, looked up): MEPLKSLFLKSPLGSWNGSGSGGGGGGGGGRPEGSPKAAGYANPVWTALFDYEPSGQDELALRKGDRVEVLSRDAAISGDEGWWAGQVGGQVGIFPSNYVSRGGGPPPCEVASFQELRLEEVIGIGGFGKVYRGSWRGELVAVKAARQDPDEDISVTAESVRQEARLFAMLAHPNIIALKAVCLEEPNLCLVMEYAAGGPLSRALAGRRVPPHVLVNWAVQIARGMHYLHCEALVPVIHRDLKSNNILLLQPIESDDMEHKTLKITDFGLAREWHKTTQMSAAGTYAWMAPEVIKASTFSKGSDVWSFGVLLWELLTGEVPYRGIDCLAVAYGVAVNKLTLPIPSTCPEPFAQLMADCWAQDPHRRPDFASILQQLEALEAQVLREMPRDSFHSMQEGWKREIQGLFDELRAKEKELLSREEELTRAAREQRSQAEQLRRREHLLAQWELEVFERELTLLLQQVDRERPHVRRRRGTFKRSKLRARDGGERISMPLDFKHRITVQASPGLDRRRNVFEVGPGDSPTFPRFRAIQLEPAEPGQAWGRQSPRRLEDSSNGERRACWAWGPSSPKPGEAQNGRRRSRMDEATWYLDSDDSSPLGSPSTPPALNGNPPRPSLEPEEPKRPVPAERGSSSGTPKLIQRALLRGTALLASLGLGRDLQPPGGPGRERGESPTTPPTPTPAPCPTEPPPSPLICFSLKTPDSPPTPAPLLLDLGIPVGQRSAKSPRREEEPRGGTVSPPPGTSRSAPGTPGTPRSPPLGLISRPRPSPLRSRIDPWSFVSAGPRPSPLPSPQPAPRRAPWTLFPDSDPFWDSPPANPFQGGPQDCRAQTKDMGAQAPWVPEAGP
# [7] = molecular target: CDK9 CCNK (human) (UniProt O75909+P50750)
# [8] = molecular target: HIPK2 (human) (UniProt Q9H2X6)
# [9] = molecular target: PRKACA (human) (UniProt P17612)
# [10] = molecular target: ABL1 (human) (UniProt P00519)
# [11] = molecular target: CAMK4 (human) (UniProt Q16566)
# [12] = molecular target: CAMK2G (human) (UniProt Q13555)
# [13] = molecular target: SGK2 (human) (UniProt Q9HBY8)
# [14] = molecular target: BRSK2 (human) (UniProt Q8IWQ3)
# [15] = molecular target: ROCK1 (human) (UniProt Q13464)
# [16] = molecular target: SRPK2 (human) (UniProt P78362)
# [17] = molecular target: DYRK2 (human) (UniProt Q92630)
# [18] = molecular target: RPS6KA6 KD1 KD2 (human) (UniProt Q9UK32)
# Sequence of RPS6KA6 KD1 KD2 (human) (Q9UK32 whole entry, looked up): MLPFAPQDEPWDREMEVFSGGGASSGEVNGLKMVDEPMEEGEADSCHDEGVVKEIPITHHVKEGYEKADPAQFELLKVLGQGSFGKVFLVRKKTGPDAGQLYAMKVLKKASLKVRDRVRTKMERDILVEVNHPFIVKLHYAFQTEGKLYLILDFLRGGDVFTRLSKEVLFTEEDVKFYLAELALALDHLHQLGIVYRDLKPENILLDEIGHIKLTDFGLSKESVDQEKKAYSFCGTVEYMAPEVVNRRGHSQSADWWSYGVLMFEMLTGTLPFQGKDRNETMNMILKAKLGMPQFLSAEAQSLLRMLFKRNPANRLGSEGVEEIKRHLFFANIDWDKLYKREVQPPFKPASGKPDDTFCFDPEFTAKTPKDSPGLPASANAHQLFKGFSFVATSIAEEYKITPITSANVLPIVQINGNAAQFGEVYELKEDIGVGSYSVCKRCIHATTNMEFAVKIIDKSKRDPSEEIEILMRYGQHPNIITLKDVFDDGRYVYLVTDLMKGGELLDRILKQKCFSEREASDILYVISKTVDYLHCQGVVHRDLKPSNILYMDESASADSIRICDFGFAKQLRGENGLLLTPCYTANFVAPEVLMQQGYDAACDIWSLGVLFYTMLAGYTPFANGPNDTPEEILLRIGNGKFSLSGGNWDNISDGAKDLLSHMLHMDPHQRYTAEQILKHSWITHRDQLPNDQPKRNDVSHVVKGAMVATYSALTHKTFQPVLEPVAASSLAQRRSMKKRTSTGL
# [19] = molecular target: FGFR3 (human) (UniProt P22607)
# [20] = molecular target: RPS6KB2 (human) (UniProt Q9UBS0)
# [21] = molecular target: CLK3 (human) (UniProt P49761)
# Sequence of CLK3 (human) (P49761 whole entry, looked up): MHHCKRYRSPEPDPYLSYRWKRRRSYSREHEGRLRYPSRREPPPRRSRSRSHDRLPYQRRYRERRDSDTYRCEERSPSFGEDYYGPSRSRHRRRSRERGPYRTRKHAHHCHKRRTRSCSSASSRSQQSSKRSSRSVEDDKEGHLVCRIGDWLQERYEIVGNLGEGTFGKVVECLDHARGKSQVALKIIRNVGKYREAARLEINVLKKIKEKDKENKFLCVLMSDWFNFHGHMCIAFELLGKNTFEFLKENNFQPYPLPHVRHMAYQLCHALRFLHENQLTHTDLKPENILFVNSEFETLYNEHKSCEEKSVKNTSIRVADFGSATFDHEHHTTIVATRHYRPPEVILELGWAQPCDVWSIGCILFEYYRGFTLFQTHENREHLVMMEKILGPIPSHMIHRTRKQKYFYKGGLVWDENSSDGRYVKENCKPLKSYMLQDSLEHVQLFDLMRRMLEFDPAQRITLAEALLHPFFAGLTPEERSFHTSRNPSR
# [22] = molecular target: DYRK3 (human) (UniProt O43781)
# Sequence of DYRK3 (human) (O43781 whole entry, looked up): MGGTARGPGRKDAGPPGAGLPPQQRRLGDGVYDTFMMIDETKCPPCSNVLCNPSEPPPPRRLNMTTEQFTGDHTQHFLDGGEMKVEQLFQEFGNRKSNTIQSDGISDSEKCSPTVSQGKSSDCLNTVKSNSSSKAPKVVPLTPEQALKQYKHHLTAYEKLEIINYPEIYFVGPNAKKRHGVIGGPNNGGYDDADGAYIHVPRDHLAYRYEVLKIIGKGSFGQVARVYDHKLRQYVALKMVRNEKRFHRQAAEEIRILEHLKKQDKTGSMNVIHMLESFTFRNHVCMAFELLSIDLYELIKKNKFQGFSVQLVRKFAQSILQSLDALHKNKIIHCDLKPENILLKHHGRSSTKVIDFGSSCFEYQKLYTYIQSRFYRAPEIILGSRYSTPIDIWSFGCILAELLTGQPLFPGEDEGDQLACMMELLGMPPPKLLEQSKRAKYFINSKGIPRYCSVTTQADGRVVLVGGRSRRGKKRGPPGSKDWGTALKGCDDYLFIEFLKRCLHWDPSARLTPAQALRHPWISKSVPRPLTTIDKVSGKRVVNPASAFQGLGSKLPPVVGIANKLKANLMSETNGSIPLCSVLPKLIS
# [23] = molecular target: MAP3K10 (human) (UniProt Q02779)
# [24] = molecular target: BTK (human) (UniProt Q06187)
# [25] = molecular target: STK10 (human) (UniProt O94804)
# [26] = molecular target: CSNK1A1 (human) (UniProt P48729)
# Sequence of CSNK1A1 (human) (P48729 whole entry, looked up): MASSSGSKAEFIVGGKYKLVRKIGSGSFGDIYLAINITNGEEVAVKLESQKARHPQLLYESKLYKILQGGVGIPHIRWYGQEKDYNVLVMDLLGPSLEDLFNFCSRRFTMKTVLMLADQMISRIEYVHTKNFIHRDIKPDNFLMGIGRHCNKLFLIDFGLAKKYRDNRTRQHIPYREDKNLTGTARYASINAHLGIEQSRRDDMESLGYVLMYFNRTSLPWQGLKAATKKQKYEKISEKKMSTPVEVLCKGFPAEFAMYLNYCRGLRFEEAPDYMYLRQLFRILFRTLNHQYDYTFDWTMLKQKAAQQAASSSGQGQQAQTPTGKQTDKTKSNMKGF
# [27] = molecular target: CSNK2A1 (human) (UniProt P68400)
# [28] = molecular target: MAP3K3 (human) (UniProt Q99759)
# [29] = molecular target: RIPK2 (human) (UniProt O43353)
# [30] = molecular target: ACVRL1 (human) (UniProt P37023)
# [31] = molecular target: GSK3B (human) (UniProt P49841)
# Sequence of GSK3B (human) (P49841 whole entry, looked up): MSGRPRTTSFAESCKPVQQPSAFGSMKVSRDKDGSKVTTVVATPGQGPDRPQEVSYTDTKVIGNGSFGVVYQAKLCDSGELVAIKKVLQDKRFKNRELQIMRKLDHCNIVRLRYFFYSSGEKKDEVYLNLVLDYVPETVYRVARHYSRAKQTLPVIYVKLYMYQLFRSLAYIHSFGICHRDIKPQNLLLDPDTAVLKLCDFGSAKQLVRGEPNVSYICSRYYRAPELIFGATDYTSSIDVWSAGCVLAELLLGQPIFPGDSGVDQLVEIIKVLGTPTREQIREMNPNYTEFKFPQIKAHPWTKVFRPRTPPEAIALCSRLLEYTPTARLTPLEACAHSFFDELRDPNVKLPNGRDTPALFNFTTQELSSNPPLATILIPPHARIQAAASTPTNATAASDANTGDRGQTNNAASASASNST
# [32] = molecular target: EPHA4 (human) (UniProt P54764)
# [33] = molecular target: ERBB2 (human) (UniProt P04626)
# [34] = molecular target: DYRK4 (human) (UniProt Q9NR20)
# Sequence of DYRK4 (human) (Q9NR20 whole entry, looked up): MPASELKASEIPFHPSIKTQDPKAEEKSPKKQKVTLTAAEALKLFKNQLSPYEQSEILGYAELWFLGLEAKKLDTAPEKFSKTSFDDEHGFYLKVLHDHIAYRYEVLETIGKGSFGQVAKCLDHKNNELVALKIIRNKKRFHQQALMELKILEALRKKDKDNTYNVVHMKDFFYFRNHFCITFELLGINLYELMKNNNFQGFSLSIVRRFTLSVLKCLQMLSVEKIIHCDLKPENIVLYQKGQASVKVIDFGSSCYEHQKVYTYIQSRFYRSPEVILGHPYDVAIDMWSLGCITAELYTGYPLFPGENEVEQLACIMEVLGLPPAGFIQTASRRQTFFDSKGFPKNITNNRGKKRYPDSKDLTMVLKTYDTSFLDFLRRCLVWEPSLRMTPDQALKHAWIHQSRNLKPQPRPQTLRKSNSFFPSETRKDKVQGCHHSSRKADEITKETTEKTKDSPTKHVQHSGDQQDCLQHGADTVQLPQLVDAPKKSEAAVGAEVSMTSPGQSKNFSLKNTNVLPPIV
# [35] = molecular target: PNCK (human) (UniProt Q6P2M8)
# Sequence of PNCK (human) (Q6P2M8 whole entry, looked up): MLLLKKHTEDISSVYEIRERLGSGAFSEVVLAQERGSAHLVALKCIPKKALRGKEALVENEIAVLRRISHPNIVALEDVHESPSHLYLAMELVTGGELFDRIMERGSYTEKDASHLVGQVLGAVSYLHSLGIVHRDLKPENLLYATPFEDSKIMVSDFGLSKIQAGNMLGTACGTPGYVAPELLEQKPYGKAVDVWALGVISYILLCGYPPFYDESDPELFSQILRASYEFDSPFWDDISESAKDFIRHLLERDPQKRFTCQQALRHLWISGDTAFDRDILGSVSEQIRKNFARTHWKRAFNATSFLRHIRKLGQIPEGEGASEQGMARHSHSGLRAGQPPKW
# [36] = molecular target: NEK3 (human) (UniProt P51956)
# [37] = molecular target: MINK1 (human) (UniProt Q8N4C8)
# [38] = molecular target: TNK2 (human) (UniProt Q07912)
# [39] = molecular target: SRPK3 (human) (UniProt Q9UPE1)
# [40] = molecular target: CLK1 (human) (UniProt P49759)
# [41] = molecular target: MAPK1 (human) (UniProt P28482)
# Sequence of MAPK1 (human) (P28482 whole entry, looked up): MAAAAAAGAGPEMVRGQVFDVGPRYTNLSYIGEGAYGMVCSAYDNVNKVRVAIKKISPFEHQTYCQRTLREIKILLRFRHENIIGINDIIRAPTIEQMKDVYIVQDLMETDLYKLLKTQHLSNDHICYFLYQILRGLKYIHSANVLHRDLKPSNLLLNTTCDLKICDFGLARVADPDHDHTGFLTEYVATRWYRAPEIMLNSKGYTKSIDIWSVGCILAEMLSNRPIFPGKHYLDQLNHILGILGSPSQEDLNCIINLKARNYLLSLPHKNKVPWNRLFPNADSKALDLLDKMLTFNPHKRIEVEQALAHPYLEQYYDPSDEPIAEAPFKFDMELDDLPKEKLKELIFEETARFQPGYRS
# [42] = molecular target: NEK7 (human) (UniProt Q8TDX7)
# Sequence of NEK7 (human) (Q8TDX7 whole entry, looked up): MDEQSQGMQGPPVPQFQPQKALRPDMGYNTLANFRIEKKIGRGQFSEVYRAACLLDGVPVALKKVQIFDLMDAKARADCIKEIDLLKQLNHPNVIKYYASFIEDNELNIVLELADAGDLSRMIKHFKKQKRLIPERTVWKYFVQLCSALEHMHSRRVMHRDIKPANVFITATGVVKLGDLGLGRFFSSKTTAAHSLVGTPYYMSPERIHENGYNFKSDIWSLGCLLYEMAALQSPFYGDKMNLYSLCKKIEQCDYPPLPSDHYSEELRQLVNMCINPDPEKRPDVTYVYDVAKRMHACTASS
structure (smiles),measurement,setting,value
Nc1nnc2[nH]c3ccccc3nc1-2,residual activity,[1],97%
same,residual activity,[2],106%
same,residual activity,[3],98%
same,residual activity,[4],98.9%
same,residual activity,[5],90.2%
same,residual activity,[6],96.3%
same,residual activity,[7],88.3%
same,residual activity,[8],95.9%
same,residual activity,[9],102%
same,residual activity,[10],91.6%
same,residual activity,[11],104%
same,residual activity,[12],108%
same,residual activity,[13],90.3%
same,residual activity,[14],96.5%
same,residual activity,[15],99%
same,residual activity,[16],95.9%
same,residual activity,[17],91.6%
same,residual activity,[18],94.2%
same,residual activity,[19],96.5%
same,residual activity,[20],102%
same,residual activity,[21],94.3%
same,residual activity,[22],102%
same,residual activity,[23],93.1%
same,residual activity,[24],93.9%
same,residual activity,[25],94.6%
same,residual activity,[26],101%
same,residual activity,[27],87.6%
same,residual activity,[28],103%
same,residual activity,[29],81.1%
same,residual activity,[30],105%
same,residual activity,[31],99.7%
same,residual activity,[32],86.5%
same,residual activity,[33],95.2%
same,residual activity,[34],89.2%
same,residual activity,[35],102%
same,residual activity,[36],94.9%
same,residual activity,[37],97.9%
same,residual activity,[38],101%
same,residual activity,[39],95.6%
same,residual activity,[40],99.2%
same,residual activity,[41],100%
same,residual activity,[42],93.1%
CC(=O)O/N=C1\C(=C2\C(=O)Nc3cc(Br)ccc32)Nc2ccccc21,residual activity,[1],106%
same,residual activity,[2],95.6%
same,residual activity,[3],91.1%
same,residual activity,[4],97.6%
same,residual activity,[5],55.8%
same,residual activity,[6],42.5%
same,residual activity,[7],64.3%
same,residual activity,[8],99.1%
same,residual activity,[9],109%
same,residual activity,[10],43.1%
same,residual activity,[11],86.1%
same,residual activity,[12],70.6%
same,residual activity,[13],92.8%
same,residual activity,[14],43.4%
same,residual activity,[15],94.6%
same,residual activity,[16],96.6%
same,residual activity,[17],94.4%
same,residual activity,[18],70%
same,residual activity,[19],46.5%
same,residual activity,[20],83.7%
same,residual activity,[21],75.1%
same,residual activity,[22],91.3%
same,residual activity,[23],92.3%
same,residual activity,[24],27.3%
same,residual activity,[25],99.3%
same,residual activity,[26],68.5%
same,residual activity,[27],81.8%
same,residual activity,[28],97.4%
same,residual activity,[29],108%
same,residual activity,[30],107%
same,residual activity,[31],14.3%
same,residual activity,[32],87.6%
same,residual activity,[33],114%
same,residual activity,[34],96.7%
same,residual activity,[35],96.3%
same,residual activity,[36],130%
same,residual activity,[37],76.1%
same,residual activity,[38],74.7%
same,residual activity,[39],93.9%
same,residual activity,[40],83.3%
same,residual activity,[41],87.9%
same,residual activity,[42],91.9%

# Source: the kinase profiling compilation of Christmann-Franck et al. (2016)
